{"source": "patent US9512139B2", "about": "“Conformationally constrained, fully synthetic macrocyclic compounds” (POLYPHOR AG, priority 2009, dated 2016)", "details": "amide bond", "note": "Where two headings read alike, the source gives them in different places.", "data": [{"smiles": "CN1CC(=O)N2CCN(C(=O)OC(C)(C)C)C[C@H]2COc2ccc(F)cc2C(=O)N(C)[C@H](C(=O)OCc2ccccc2)CCC1=O", "values": [{"measurement": "ring closure, yield of all isomers", "setting": "from CN(CC(=O)O)C(=O)CC[C@@H](C(=O)OCc1ccccc1)N(C)C(=O)c1cc(F)ccc1OC[C@@H]1CN(C(=O)OC(C)(C)C)CCN1, T3P / i-Pr2NEt, CH2Cl2, 10.0 mM", "result": 90, "unit": "%"}]}, {"smiles": "CN1CC(=O)N2C[C@H](NC(=O)OC(C)(C)C)C[C@H]2COc2ccc(F)cc2C(=O)N(C)[C@H](C(=O)OCc2ccccc2)CCC1=O", "values": [{"measurement": "ring closure, yield of all isomers", "setting": "from CNCC(=O)N1C[C@H](NC(=O)OC(C)(C)C)C[C@H]1COc1ccc(F)cc1C(=O)N(C)[C@@H](CCC(=O)O)C(=O)OCc1ccccc1, T3P, CH2Cl2, 10.5 mM, 25.0 °C, 20.0 h", "result": 87, "unit": "%"}]}, {"smiles": "O=C1NCCC[C@H](O)C(=O)N2C[C@@H](OCc3ccc(Br)cc3)C[C@H]2COc2cccc1c2", "values": [{"measurement": "ring closure, yield of all isomers", "setting": "from O=C(NCCC[C@H](O)C(=O)O)c1cccc(OC[C@@H]2C[C@H](OCc3ccc(Br)cc3)CN2)c1, T3P, i-Pr2NEt, CH2Cl2, 1.0 mM", "result": 47, "unit": "%"}]}, {"smiles": "CC(C)(C)OC(=O)N[C@H]1C[C@H]2COc3cccc(c3)C(=O)NCCC[C@H](NC(=O)OCc3ccccc3)C(=O)N2C1", "values": [{"measurement": "ring closure, yield of all isomers", "setting": "from CC(C)(C)OC(=O)N[C@@H]1CN[C@H](COc2cccc(C(=O)NCCC[C@H](NC(=O)OCc3ccccc3)C(=O)O)c2)C1, T3P, i-Pr2NEt, CH2Cl2, 5.37 mM", "result": 71, "unit": "%"}]}, {"smiles": "C[C@H]1C(=O)NCCC(=O)N2C[C@H](NC(=O)c3ccccc3)C[C@H]2COc2cccc(c2)C(=O)N1C", "values": [{"measurement": "ring closure, yield of all isomers", "setting": "from *CNC(=O)CCCOc1cc(OC)c(CN(C(=O)c2ccccc2)[C@@H]2C[C@@H](COc3cccc(C(=O)N(C)[C@@H](C)C(=O)O)c3)N(C(=O)CCN)C2)c(OC)c1, FDPP, i-Pr2NEt, DMF, 67.0 mM, 30.0 h, 7 steps", "result": 16, "unit": "%"}]}, {"smiles": "CN1C[C@H](NC(=O)OCc2ccccc2)C(=O)N(C)CC(=O)N2C[C@@H](NC(=O)OCC[Si](C)(C)C)C[C@H]2COc2cccc(c2)C1=O", "values": [{"measurement": "ring closure, yield of all isomers", "setting": "from CN(C[C@H](NC(=O)OCc1ccccc1)C(=O)N(C)CC(=O)O)C(=O)c1cccc(OC[C@@H]2C[C@H](NC(=O)OCC[Si](C)(C)C)CN2)c1, FDPP, DMF, 9.73 mM", "result": 63, "unit": "%"}]}, {"smiles": "CN1CC(=O)N2C[C@@H](NC(=O)OC(C)(C)C)C[C@H]2COc2ccc(F)cc2C(=O)N(C)[C@@H](C(=O)OCc2ccccc2)CCC1=O", "values": [{"measurement": "ring closure, yield of all isomers", "setting": "from CNCC(=O)N1C[C@@H](NC(=O)OC(C)(C)C)C[C@H]1COc1ccc(F)cc1C(=O)N(C)[C@H](CCC(=O)O)C(=O)OCc1ccccc1, T3P / i-Pr2NEt, CH2Cl2, 10.8 mM", "result": 92, "unit": "%"}]}, {"smiles": "CN1CC(=O)N2C[C@@H](NC(=O)OCC[Si](C)(C)C)C[C@H]2COc2cccc3c2C[C@@](NC(=O)OC(C)(C)C)(CC3)C(=O)N(C)C[C@H](NC(=O)OCc2ccccc2)C1=O", "values": [{"measurement": "ring closure, yield of all isomers", "setting": "from CN(CC(=O)O)C(=O)[C@H](CN(C)C(=O)[C@]1(NC(=O)OC(C)(C)C)CCc2cccc(OC[C@@H]3C[C@H](NC(=O)OCC[Si](C)(C)C)CN3)c2C1)NC(=O)OCc1ccccc1, T3P, i-Pr2NEt, CH2Cl2, 10.0 mM, 2.0 h", "result": 44, "unit": "%"}]}, {"smiles": "CN1C(=O)c2cccc(c2)OC[C@@H]2C[C@H](NC(=O)OC(C)(C)C)CN2C(=O)COC[C@H]1C(=O)OCc1ccccc1", "values": [{"measurement": "ring closure, yield of all isomers", "setting": "from CN(C(=O)c1cccc(OC[C@@H]2C[C@H](NC(=O)OC(C)(C)C)CN2)c1)[C@@H](COCC(=O)O)C(=O)OCc1ccccc1, FDPP, DMF, 5.2 mM", "result": 80, "unit": "%"}]}, {"smiles": "CN1CCC[C@H](NC(=O)OCc2ccccc2)C(=O)N2C[C@@H](Oc3ccccc3)C[C@H]2COc2cccc(c2)C1=O", "values": [{"measurement": "ring closure, yield of all isomers", "setting": "from CN(CCC[C@H](NC(=O)OCc1ccccc1)C(=O)O)C(=O)c1cccc(OC[C@@H]2C[C@H](Oc3ccccc3)CN2)c1, FDPP, DMF, 5.7 mM, 25.0 °C, 20.0 h", "result": 63, "unit": "%"}]}, {"smiles": "CN1CC(=O)N2C[C@H](NC(=O)OC(C)(C)C)C[C@H]2COc2ccc(F)cc2C(=O)N(C)[C@@H](C(=O)OCc2ccccc2)CCC1=O", "values": [{"measurement": "ring closure, yield of all isomers", "setting": "from CNCC(=O)N1C[C@H](NC(=O)OC(C)(C)C)C[C@H]1COc1ccc(F)cc1C(=O)N(C)[C@H](CCC(=O)O)C(=O)OCc1ccccc1, T3P / i-Pr2NEt, CH2Cl2, 5.08 mM", "result": 60, "unit": "%"}]}, {"smiles": "CN1CC(=O)N2CCN(C(=O)OC(C)(C)C)C[C@@H]2COc2ccc(F)cc2C(=O)N(C)[C@@H](C(=O)OCc2ccccc2)CCC1=O", "values": [{"measurement": "ring closure, yield of all isomers", "setting": "from CNCC(=O)N1CCN(C(=O)OC(C)(C)C)C[C@@H]1COc1ccc(F)cc1C(=O)N(C)[C@H](CCC(=O)O)C(=O)OCc1ccccc1, T3P / i-Pr2NEt, CH2Cl2, 10.4 mM", "result": 96, "unit": "%"}]}, {"smiles": "CN1CCCC[C@H](NC(=O)OCc2ccccc2)C(=O)N2C[C@@H](NC(=O)OC(C)(C)C)C[C@H]2COc2cncc(c2)C1=O", "values": [{"measurement": "ring closure, yield of all isomers", "setting": "from CN(CCCC[C@H](NC(=O)OCc1ccccc1)C(=O)O)C(=O)c1cncc(OC[C@@H]2C[C@H](NC(=O)OC(C)(C)C)CN2)c1, T3P, CH2Cl2, 4.78 mM", "result": 79, "unit": "%"}]}, {"smiles": "CN1CC(=O)N2C[C@H](NC(=O)OC(C)(C)C)C[C@H]2CSc2cccc(c2)C(=O)N(C)[C@H](C(=O)OCc2ccccc2)CCC1=O", "values": [{"measurement": "ring closure, yield of all isomers", "setting": "from CNCC(=O)N1C[C@H](NC(=O)OC(C)(C)C)C[C@H]1CSc1cccc(C(=O)N(C)[C@@H](CCC(=O)O)C(=O)OCc2ccccc2)c1, T3P, i-Pr2NEt, CH2Cl2, 10.0 mM, 25.0 °C, 3.0 h", "result": 57, "unit": "%"}]}, {"smiles": "CC(C)(C)OC(=O)N[C@H]1CCCCSc2cccc(c2)OC[C@@H]2C[C@H](OCc3ccc(Br)cc3)CN2C1=O", "values": [{"measurement": "ring closure, yield of all isomers", "setting": "from CC(C)(C)OC(=O)N[C@@H](CCCCSc1cccc(OC[C@@H]2C[C@H](OCc3ccc(Br)cc3)CN2)c1)C(=O)O, T3P, i-Pr2NEt, CH2Cl2, 2.0 mM, 25.0 °C, 4.0 h", "result": 99, "unit": "%"}]}, {"smiles": "CN1CC(=O)N2C[C@@H](NC(=O)OC(C)(C)C)C[C@H]2COc2ccc(F)cc2C(=O)N(C)[C@H](C(=O)OCc2ccccc2)CCC1=O", "values": [{"measurement": "ring closure, yield of all isomers", "setting": "from CNCC(=O)N1C[C@@H](NC(=O)OC(C)(C)C)C[C@H]1COc1ccc(F)cc1C(=O)N(C)[C@@H](CCC(=O)O)C(=O)OCc1ccccc1, FDPP, DMF, 8.44 mM, 25.0 °C, 20.0 h", "result": 94, "unit": "%"}]}, {"smiles": "CN1CCC[C@H](NC(=O)OCc2ccccc2)C(=O)N2C[C@@H](Cc3ccccc3)C[C@H]2COc2cccc(c2)C1=O", "values": [{"measurement": "ring closure, yield of all isomers", "setting": "from CN(CCC[C@H](NC(=O)OCc1ccccc1)C(=O)O)C(=O)c1cccc(OC[C@@H]2C[C@H](Cc3ccccc3)CN2)c1, T3P, CH2Cl2, 4.5 mM, 25.0 °C, 0.5 h", "result": 37, "unit": "%"}]}, {"smiles": "CN1CCC[C@H](NC(=O)OCc2ccccc2)C(=O)N2C[C@@H](NC(=O)OCC[Si](C)(C)C)C[C@H]2COc2cccc(c2)C1=O", "values": [{"measurement": "ring closure, yield of all isomers", "setting": "from CN(CCC[C@H](NC(=O)OCc1ccccc1)C(=O)O)C(=O)c1cccc(OC[C@@H]2C[C@H](NC(=O)OCC[Si](C)(C)C)CN2)c1, T3P, CH2Cl2, 9.4 mM", "result": 54, "unit": "%"}]}, {"smiles": "O=C(N[C@H]1CCCNC(=O)c2cccc(c2)OC[C@@H]2C[C@H](Oc3ccccc3)CN2C1=O)OCc1ccccc1", "values": [{"measurement": "ring closure, yield of all isomers", "setting": "from O=C(N[C@@H](CCCNC(=O)c1cccc(OC[C@@H]2C[C@H](Oc3ccccc3)CN2)c1)C(=O)O)OCc1ccccc1, HATU, HOAt, i-Pr2NEt, DMF, 0.98 mM, 25.0 °C, 20.0 h", "result": 88, "unit": "%"}]}, {"smiles": "CN1CC(=O)N2C[C@H](NC(=O)OC(C)(C)C)C[C@H]2COc2ccsc2C(=O)N(C)[C@H](C(=O)OCc2ccccc2)CCC1=O", "values": [{"measurement": "ring closure, yield of all isomers", "setting": "from CNCC(=O)N1C[C@H](NC(=O)OC(C)(C)C)C[C@H]1COc1ccsc1C(=O)N(C)[C@@H](CCC(=O)O)C(=O)OCc1ccccc1, T3P, CH2Cl2, 10.0 mM, 25.0 °C, 1.0 h", "result": 69, "unit": "%"}]}, {"smiles": "CN1C[C@H](NC(=O)OCc2ccccc2)C(=O)N(C)CC(=O)N2C[C@@H](NC(=O)OC(C)(C)C)C[C@H]2COc2cccc(c2)C1=O", "values": [{"measurement": "ring closure, yield of all isomers", "setting": "from CNCC(=O)N1C[C@@H](NC(=O)OC(C)(C)C)C[C@H]1COc1cccc(C(=O)N(C)C[C@H](NC(=O)OCc2ccccc2)C(=O)O)c1, T3P / i-Pr2NEt, CH2Cl2, 0.96 mM", "result": 73, "unit": "%"}, {"measurement": "ring closure, yield of all isomers", "setting": "from CNCC(=O)N1C[C@@H](NC(=O)OC(C)(C)C)C[C@H]1COc1cccc(C(=O)N(C)C[C@H](NC(=O)OCc2ccccc2)C(=O)O)c1, T3P / i-Pr2NEt, CH2Cl2, 1.0 mM", "result": 39, "unit": "%"}]}]}
